Measured values from paper PMC10096175, “An In Vitro Antimicrobial, Anticancer and Antioxidant Activity of N–[(2–Arylmethylthio)phenylsulfonyl]cinnamamide Derivatives” (Molecules, 2023).
Converted amounts (≈) assume the structure as drawn.

Columns and labels:
[1] = test system: HEK-293 cells; experiment: MTT assay, noncancerous cells; type: cell-based; settings: Homo sapiens, HEK293; HEK-293; MTT, 24 h treatment; read-out: IC50
[2] = test system: E. coli ATCC 8739; experiment: MIC determination, reference strain (microdilution); type: cell-based; settings: Escherichia coli, ATCC8739; E. coli ATCC 8739; Co-trimoxazole as sulfamethoxazole/trimethoprim; read-out: MIC
[3] = test system: biofilm formation by MRSA clinical strains; experiment: Inhibition of biofilm formation (crystal violet), MRSA; type: cell-based, Staphylococcus aureus; settings: 2 × MIC
[4] = in vitro; settings: sheep, defibrinated sheep blood diluted 1:9 v/v with PBS, pH 7
[5] = test system: C. diphtheriae; experiment: MIC determination, reference strain (microdilution); type: cell-based; settings: Corynebacterium diphtheriae; C. diphtheriae; Co-trimoxazole as sulfamethoxazole/trimethoprim; read-out: MIC
[6] = test system: Staphylococcus sp. and Enterococcus sp.; experiment: MIC, summary statements on reference Gram-positive cocci; type: cell-based; settings: Staphylococcus and Enterococcus species, reference Gram-positive cocci (range over strains)
Protocol: Sterile sheep blood defibrinated (GrasoBiotech). Co-trimoxazole (composition sulfamethoxazole 400 mg/trimethoprim 80 mg; WZF Polfa Poland). Ketoconazole (WZF Polfa Poland). Bacteria: Enterococcus hirae ATCC 10541 and Enterococcus faecalis ATCC 51299, Staphylococcus epidermidis ATCC 14990, Staphylococcus aureus ATCC 6538, clinical strains Staphylococcus aureus MRSA, clinical strains Staphylococcus sp. (MRCNS), clinical strain Staphylococcus epidermidis MRSE, clinical strain Enterococcus sp., Corynebacterium diphtheriae ZMF, Bacillus subtilis ATCC 6633, Escherichia coli ATCC 8739, Candida albicans ATCC 10231. Brain-heart infusion broth (BHI, Becton Dickinson) for Enterococcus hirae ATCC 10541 and Enterococcus faecalis ATCC 51299, BHI supplement with 10% bovine serum for Bacillus subtilis, Corynebacterium diphtheriae ZMF, Staphylococcus epidermidis ATCC 14990, Staphylococcus aureus ATCC 6538, clinical strains Staphylococcus aureus MRSA, clinical strains Staphylococcus sp. (CNS), clinical strain Staphylococcus epidermidis MRSE grew in Mueller-Hinton broth (MH cation-adjusted, Becton Dickinson) in an aerobic atmosphere at 37 °C for 48 h, in an aerobic atmosphere at 37 °C for 72 h. Candida albicans grew in Sabourauda broth (Sb, Becton Dickinson), in an aerobic atmosphere at 37 °C for 72 h. After determination of the bacterial viability, BHI blood agar plates, MH agar plates, and Sb agar plates were used.
The MIC determination for the reference and clinical strains was performed based on the methodology described by Kula et al.. The dry test samples were dissolved in dimethyl sulfoxide (DMSO) and diluted in water, resulting in a finale concentration of about 500 µg/mL. These solutions were diluted and added to the first well of each microtiter line. Dilution in geometric progression was done by transferring the mixture/dilution (100 μL) from the first to the twelfth well. An aliquot (100 μL) was discarded from the twelfth well. The final concentration of the samples used in the antimicrobial activity assay ranged from 125 to 0.006 µg/mL. Co-trimoxazole (for bacteria), with the composition sulfamethoxazole 400 mg/trimethoprim 80 mg was used as a reference compound in the concentration range of 20 000/4000 to 1/0.2 µg/mL. Ketoconazole (for fungi) was used as a reference compound in the concentration range of 125 to 0.006 µg/mL. Tests were incubated in adequate conditions described by Kula et al.. Diluent concentration had no effect on the activity of the tested compounds. All experiments were carried out three times.

[7] = test system: 24 h biofilm already formed by MRSA strains; experiment: Effect on 24 h biofilm already formed, MRSA; type: cell-based, Staphylococcus aureus; settings: MRSA12677
[8] = test system: cancer cells (HeLa, SKOV-3, MCF-7); experiment: MTT assay, summary statements on the cancer cells; type: cell-based; settings: Homo sapiens, cell line not specified

Row | MIC [2] [µg/mL] | MIC [5] [µg/mL] | MIC [6] [µg/mL] | IC50 ([8]; MTT) [µg/mL] | IC50 ([8]; µg/mL bound converted) [µM] | Structure (SMILES) | IC50 [1] [µg/mL] | Inhibition of biofilm formation compared with the control ([3]; MRSA13318) [%] | Inhibition of biofilm formation compared with the control ([3]; MRSA21804) [%] | hemolysis at 24 h, 31.25 µg/mL [4] [%] | Inhibition of biofilm already formed, in relation to the control ([7]; 2 × MIC) | Inhibition of biofilm already formed, in relation to the control ([7]; 2 × MIC and 4 × MIC)
1 | > 125 | > 125 | 1 to 2 (≈ 1.75 to 3.5 µM) | – | – | Cc1cc(S(=O)(=O)NC(=O)/C=C/c2ccc(Cl)cc2)c(SCc2cc3c(cc2Cl)OCO3)cc1Cl [Compound 17c, (E)–N–{4–Chloro–2–[(6–chlorobenzo[d][1,3]dioxol–5–yl)methylthio]–5–methylphenylsulfonyl}–3–(4–chlorophenyl)acrylamide] | 14.6 ± 0.58 (≈ 25.5 µM) | 98 | 61 | 12 to 20 | about 40% | –
2 | > 125 | > 125 | 1 to 2 (≈ 1.84 to 3.69 µM) | < 10 | ≤ 20 | Cc1cc(S(=O)(=O)NC(=O)/C=C/c2ccc(Cl)cc2)c(SCc2cccc3ccccc23)cc1Cl [Compound 16d, (E)–N–{4–Chloro–5–methyl–2–[(naphthalen–1–yl)methylthio]phenylsulfonyl}–3–(4–chlorophenyl)acrylamide] | 10.8 ± 0.4 (≈ 19.9 µM) | – | – | – | – | –
3 | > 125 | 62.5 ± 0.29 (≈ 112 µM) | – | – | – | COc1ccc(/C=C/C(=O)NS(=O)(=O)c2cc(C)c(Cl)cc2SCc2cccc3ccccc23)cc1F [Compound 16e, (E)–N–{4–Chloro–5–methyl–2–[(naphthalen–1–yl)methylthio]phenylsulfonyl}–3–(3–fluoro–4–methoxyphenyl)acrylamide] | 10 ± 0.23 (≈ 18 µM) | – | – | 12 to 20 | – | about 53%
